Several values for one entry are separate records, joined by “and”; a condition that tells them apart may be missing. Identical values can stand only once. Like-named read-outs stand apart in the source and are kept apart here.
Legend:
recombinant PhnsLTP3 = assay: TNS displacement assay with recombinant PhnsLTP3; type: binding, Petunia hybrida; settings: for Kd / Percentage fluorescence quenched: PhnsLTP3 1 µM, TNS 3 µM; for Kd: means ± S.E., n = 3; for Percentage fluorescence quenched: three biological replicates (c2-c4); for Percentage fluorescence quenched (%): biological replicates 1-3, Supplementary Figure 16
Protocol: (§1) To directly test whether PhnsLTP3 can bind petunia VOCs, in vitro displacement assays were performed using the recombinant PhnsLTP3 protein and fluorescent 6-(p-toluidino)−2-naphthalenesulfonate (TNS) in the presence of petunia volatiles. […] TNS fluoresces strongly when bound to the hydrophobic regions of the protein, while it has weak fluorescence in an aqueous solution. […] Potential ligands of the protein will displace the bound TNS from the hydrophobic protein pocket into the aqueous environment leading to a decrease in the fluorescent signal, which was used to calculate the dissociation constant of the protein with ligand. […] To test whether PhnsLTP2 and PhnsLTP3 can bind other VOCs, we assayed the terpenoids: limonene, linalool, and nerolidol, as well as methyl jasmonate in TNS displacement assays. Both PhnsLTP2 and PhnsLTP3 were able to bind tested volatile compounds with Kds in the micromolar range (Supplementary Figs. 16 and 17).
Fig. 5 Binding kinetics of recombinant PhnsLTP3 with VOCs emitted by petunia flowers. TNS displacement assays were performed at fixed concentrations of PhnsLTP3 (1 µM) and TNS (3 µM) and the fluorescence was measured before and after the tested compounds were added at various concentrations. The results are expressed as percentage of fluorescence quenched with respect to the concentration of added compound. The binding curves were obtained by non-linear fitting to the Michaelis-Menten equation (solid line in the graph) and the dissociation constants Kd [µM] were obtained. […] All data are means ± S.E. (n = 3 biological replicates).
(§2) The fluorescence-based-binding assays were performed largely according to previous publications[12],[52] with slight modifications. […] All mixtures were excited at 320 nm, and the fluorescence emission at 437 nm was recorded using a plate reader (SpectraMax iD3, Molecular Devices) at equilibrium after 5 min of incubation at 25 °C giving the background fluorescence Fmix0 and FTNS0 . The tested ligands dissolved in 2 µL DMSO were then added to the mixtures and TNS only to different final concentrations, and the fluorescence emissions were recorded at equilibrium after 5 min of incubation ( Fmixligand and FTNSligand ). To account for the change in the TNS fluorescence intensity upon adding the solvent DMSO, the background fluorescence of TNS ( FTNSsol ) as well as each PhnsLTP with TNS ( Fmixsol ) were measured. The ratios RTNS=FTNSsol/FTNS0 and Rmix=Fmixsol/Fmix0 were calculated to calibrate the fluorescence. Three measurements were taken for each concentration. The results were expressed as a percentage of fluorescence quenched Fmixligand/Rmix−FTNSligand/RTNS/Fmix0−FTNS0×100% . The corresponding dissociation constants kd were obtained by non-linear regression fitting of the binding kinetics to the Michaelis-Menten equation.
The binding curves of PhnsLTP3 with various VOC compounds were obtained by non-linear fitting to the one-binding-site (Eq. (1)) and two-binding-site (Eq. (2)) models. The equations assume that the ligand binds to multiple independent binding sites and that the binding to each site follows the law of mass action:1 %offluorescencequenched=Bmax×[TNS]/kd+[TNS] 2 %offluorescencequenched=Bmax1×[TNS]/kd1+[TNS]+Bmax2×[TNS]/kd2+[TNS] […]
PhnsL TP3 (1 µ M)and TNS (3 µ M)and the fluorescence was measured before and after the tested compounds were added at various concentrations. The results are expressed as percentage of fluorescence quenched with respect to the concentration of added compound.
The binding curves were obtained by non-linear fitting to the Michaelis-Menten equation (solid line in the graph) and the dissociation constants Kd [µ M]were obtained. All data are means ±S.E. (n = 3 biological replicates).
Supplementary Figure 25 | Analysis of number of binding sites of PhnsLTP3.
TNS displacement assay was performed at fixed concentrations of PhnsLTP3 (1 µM) and TNS (3 µM) and the fluorescence was measured before and after methyl […]

recombinant PhnsLTP2 = assay: TNS displacement assay with recombinant PhnsLTP2; type: binding, Petunia hybrida; settings: for Kd: PhnsLTP2 1 µM, TNS 3 µM, non-linear fitting to Michaelis-Menten equation, means ± S.E., n = 3, read-out: dissociation constant Kd (PhnsLTP2); for Percentage fluorescence quenched (%): biological replicates 1-3, Supplementary Figure 17
Protocol: as §1, §2
Supplementary Figure 16 | Binding kinetics of recombinant PhnsLTP2 with phenylpropanoids/benzenoids by petunia flowers, terpenoids and methyl jasmonate.
TNS displacement assays were performed at fixed concentrations of PhnsLTP2 (1 µM) and TNS (3 µM) and the fluorescence was measured before and after the tested compounds were added at various concentrations. The results are expressed as percentage of fluorescence quenched with respect to the concentration of added compound. The binding curves were obtained by non-linear fitting to the Michaelis-Menten equation (solid line in the graph) and the dissociation constants Kd [µM] were obtained. Phenylacetaldehyde, eugenol, and […]
corresponding binding curves. All data are means ±S.E. (n = 3 biological replicates).

petunia flowers = assay: Phenylalanine feeding: total VOC emission and total pools; type: in vivo, Petunia hybrida; settings: for Total pools / Total emission: biological replicates 1-3; for absolute increase over 2 h in VOC emission rate upon Phe feeding: 150 mM Phe, 19:00 to 22:00 h
Source text: Such reduction in VOC emission could be the result of diminished VOC transport across the cell wall, decreased VOC biosynthesis or both. […] Recently, we have shown that the VOC redistribution and reduction of their levels in the cuticle decrease their release from the cell and reduce carbon flux to Phe, which is the precursor for petunia VOCs[8]. […] Thus, to distinguish between the contribution of VOC transport and Phe limitation in VOC biosynthesis, control and PhnsLTP3-RNAi-R5 flowers were fed with Phe, and total VOC emission and total pools were measured from 19:00 to 22:00 h (Supplementary Fig. 20).
Floral volatile emission was analyzed by dynamic headspace collection of volatiles at 25 °C on columns containing 20 mg Porapak Q (80–100 mesh) (Sigma-Aldrich) and analyzed on an Agilent 6890N-5975B GC–MS system as described previously[7],[8],[43] with minor modifications. Briefly, emitted volatiles were collected from detached transgenic and wild-type flowers from 19:00 to 22:00 h on day 2 postanthesis. Adsorbed volatiles were eluted from collection columns with 280 μL dichloromethane containing 52 nmol of naphthalene as the internal standard. For analysis of total petal pools, 0.5 g of petal tissue from transgenic and control plants was collected at 22:00 h on day 2 postanthesis, ground to a fine powder in liquid nitrogen, and total petal pools were extracted in 5 mL of dichloromethane containing 52 nmol of internal standard (naphthalene) for 12 h at −20 °C. Samples were then warmed up, vortexed and concentrated to 200 μL under a stream of nitrogen gas before injection into GC–MS (Agilent 6890N-5975B). All GC–MS data were collected and analyzed using Agilent MSD ChemStation F.01.03.2357 software. For phenylalanine feeding, flowers from wild type and PhnsLTP3-RNAi were harvested and placed in 150 mM of phenylalanine solution. Emitted volatiles and their total petal pools were sampled every hour from 16:00 till 19:00 h and from 19:00 till 22:00 h and analyzed as described above.
Supplementary Figure 20 | Total VOC emission and their total pools in control and PhnsLTP3-RNAi petunia flowers fed with 150 mM Phe. Total VOC emission (a) and total pools (b) in wild-type (WT) and PhnsLTP3-RNAi-R5 line fed with 150 mM Phe from 19:00 to 22:00 h. Data are means ± S.E. (n = 3 biological replicates). […]
determined by two-way ANOV Awith P = 0.0086. […]

[1] = non-linear fitting to Michaelis-Menten equation (one binding site), read-out: dissociation constant Kd (PhnsLTP3)

| Kd (recombinant PhnsLTP2) [µM] | Structure (SMILES) | Kd (recombinant PhnsLTP3; [1]) [µM] | Percentage fluorescence quenched (recombinant PhnsLTP3; VOC concentration 3 µM) | Percentage fluorescence quenched (recombinant PhnsLTP3; VOC concentration 30 µM) | Percentage fluorescence quenched (recombinant PhnsLTP3; VOC concentration 300 µM) | Percentage fluorescence quenched (recombinant PhnsLTP3; VOC concentration 1500 µM) | Percentage fluorescence quenched (recombinant PhnsLTP3; VOC concentration 3000 µM) | also measured |
| --- | --- | --- | --- | --- | --- | --- | --- | --- |
| 21.4 ± 4.5 | C=CC(C)(O)CCC=C(C)CCC=C(C)C (mixture of isomers) [Nerolidol] | 2.4 ± 0.4 | – | – | – | – | – | Percentage fluorescence quenched (%) (recombinant PhnsLTP2; VOC concentration 30 µM): 79.85% and 81.10% and 78.83% |
| – | OCCc1ccccc1 [2-Phenylethanol] | 395 ± 131 | 8.20% and 0.13% and 7.39% | 14.26% and 5.61% and 8.61% | 15.48% and 18.99% and 19.97% | 39.03% and 34.28% and 33.24% | 41.03% and 32.70% and 40.07% | – |
| 184 ± 96.5 | CC/C=C\CC1C(=O)CCC1CC(=O)OC (stereo not shown) [Methyl jasmonate] | 253 ± 112 | – | – | – | – | – | Percentage fluorescence quenched (%) (recombinant PhnsLTP2; VOC concentration 1500 µM): 75.75% and 76.43% and 72.92% |
| – | N[C@@H](Cc1ccccc1)C(=O)O [Phe, L-phenylalanine] | – | – | – | – | – | – | Total pools (petunia flowers; PhLTP3-RNAi-5 + Phe, 19:00 h): 440.17 nmol g FW-1 and 381.25 nmol g FW-1 and 288.77 nmol g FW-1; Total emission (petunia flowers; PhLTP3-RNAi-5 + Phe, 20:00 h): 837.22 nmol g FW-1 h-1 and 1059.64 nmol g FW-1 h-1 and 828.44 nmol g FW-1 h-1; Total pools (petunia flowers; PhLTP3-RNAi-5 + Phe, 20:00 h): 756.94 nmol g FW-1 and 1050.75 nmol g FW-1 and 883.29 nmol g FW-1; Total emission (petunia flowers; PhLTP3-RNAi-5 + Phe, 21:00 h): 2356.48 nmol g FW-1 h-1 and 1887.30 nmol g FW-1 h-1 and 1311.64 nmol g FW-1 h-1; Total pools (petunia flowers; PhLTP3-RNAi-5 + Phe, 21:00 h): 1249.12 nmol g FW-1 and 1300.32 nmol g FW-1 and 829.02 nmol g FW-1; Total emission (petunia flowers; PhLTP3-RNAi-5 + Phe, 22:00 h): 2845.33 nmol g FW-1 h-1 and 2241.14 nmol g FW-1 h-1 and 2347.25 nmol g FW-1 h-1; Total pools (petunia flowers; PhLTP3-RNAi-5 + Phe, 22:00 h): 913.29 nmol g FW-1 and 1187.03 nmol g FW-1 and 1389.76 nmol g FW-1; absolute increase over 2 h in VOC emission rate upon Phe feeding (petunia flowers; PhnsLTP3-RNAi-R5 flowers): 1569 ± 76 nmol g FW^−1; Total pools (petunia flowers; WT + Phe, 19:00 h): 363.34 nmol g FW-1 and 564.43 nmol g FW-1 and 340.47 nmol g FW-1; Total emission (petunia flowers; WT + Phe, 20:00 h): 1481.84 nmol g FW-1 h-1 and 2333.99 nmol g FW-1 h-1 and 1404.14 nmol g FW-1 h-1; Total pools (petunia flowers; WT + Phe, 20:00 h): 885.56 nmol g FW-1 and 1126.01 nmol g FW-1 and 1295.32 nmol g FW-1; Total emission (petunia flowers; WT + Phe, 21:00 h): 1814.62 nmol g FW-1 h-1 and 2602.15 nmol g FW-1 h-1 and 2554.66 nmol g FW-1 h-1; Total pools (petunia flowers; WT + Phe, 21:00 h): 1190.78 nmol g FW-1 and 1426.22 nmol g FW-1 and 956.14 nmol g FW-1; Total emission (petunia flowers; WT + Phe, 22:00 h): 3087.41 nmol g FW-1 h-1 and 2626.99 nmol g FW-1 h-1 and 3838.92 nmol g FW-1 h-1; Total pools (petunia flowers; WT + Phe, 22:00 h): 1455.77 nmol g FW-1 and 972.77 nmol g FW-1 and 1086.37 nmol g FW-1; absolute increase over 2 h in VOC emission rate upon Phe feeding (petunia flowers; wild-type flowers): 1444 ± 298 nmol g FW^−1 |
| 399 ± 261 | OCc1ccccc1 [Benzyl alcohol] | 208 ± 74.2 | – | 3.06% and 3.64% and 9.84% | 23.75% and 24.96% and 17.77% | 32.13% and 29.61% and 29.01% | 34.41% and 38.89% and 34.26% | – |

| Structure (SMILES) | Kd (recombinant PhnsLTP2) [µM] | Kd (recombinant PhnsLTP3; [1]) [µM] | Percentage fluorescence quenched (recombinant PhnsLTP3; VOC concentration 3 µM) | Percentage fluorescence quenched (recombinant PhnsLTP3; VOC concentration 30 µM) | Percentage fluorescence quenched (recombinant PhnsLTP3; VOC concentration 300 µM) | Percentage fluorescence quenched (recombinant PhnsLTP3; VOC concentration 1500 µM) | Percentage fluorescence quenched (recombinant PhnsLTP3; VOC concentration 3000 µM) | also measured |
| --- | --- | --- | --- | --- | --- | --- | --- | --- |
| COC(=O)c1ccccc1 [Methylbenzoate] | 534 ± 302 | 271 ± 91.1 | 6.48% and 6.57% (2×) | 10.07% and 16.15% and 14.94% | 37.30% and 35.09% and 38.77% | 74.64% and 66.75% and 71.33% | 78.82% and 71.40% and 74.18% | Kd (recombinant PhnsLTP3; two-binding-site fit, read-out: dissociation constant Kd1 (PhnsLTP3, two-binding-site model)): 521 ± 89.5 µM; Kd (recombinant PhnsLTP3; two-binding-site fit, read-out: dissociation constant Kd2 (PhnsLTP3, two-binding-site model)): 2 ± 1.9 µM; Percentage fluorescence quenched (%) (recombinant PhnsLTP3; VOC concentration 3 µM): 8.70% and 11.37% and 17.83%; Percentage fluorescence quenched (%) (recombinant PhnsLTP3; VOC concentration 30 µM): 3.75% and 8.76% and 8.44%; Percentage fluorescence quenched (%) (recombinant PhnsLTP3; VOC concentration 300 µM): 16.10% and 21.79% and 13.64%; Percentage fluorescence quenched (%) (recombinant PhnsLTP3; VOC concentration 1500 µM): 40.72% and 46.43% and 46.19%; Percentage fluorescence quenched (%) (recombinant PhnsLTP3; VOC concentration 3000 µM): 46.60% and 49.81% and 49.98% |
| O=Cc1ccccc1 [Benzaldehyde] | 344 ± 80.7 | 276 ± 59.8 | 3.47% and 6.56% and 12.79% | 19.94% and 11.97% and 16.71% | 45.75% and 56.38% and 51.72% | 74.25% and 79.55% and 80.00% | 86.84% and 86.38% and 86.21% | – |

Reference: article PMC9852552, “Emission of floral volatiles is facilitated by cell-wall non-specific lipid transfer proteins” (Nature Communications, 2023)
